Legend:
Experiment in all cases: relative viability (nuclei count vs DMSO), 5 days (fraction); higher = more cells survive
[1] = test system: SK-LU-1
Procedure, shortened: (§1)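 Relative viability is defined as nuclei in treated wells over nuclei in vehicle wells. Duplicate plates were run and medians reported. Lung cancer cell lines in 1536-well plates were dosed by pin tool one day after seeding, with one drug or with a fixed anchor-drug dose plus five library-drug doses (not always all listed) in √10 steps, and nuclei were counted after 5 days.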

[2] = test system: NCI-H1734
Procedure, shortened: as §1

[3] = test system: HCC-78
Procedure, shortened: as §1

[4] = test system: HCC-15
Procedure, shortened: as §1

[5] = test system: LXF-289
Procedure, shortened: as §1

[6] = test system: NCI-H1915
Procedure, shortened: as §1

[7] = test system: NCI-H358
Procedure, shortened: as §1

[8] = test system: NCI-H1975
Procedure, shortened: as §1

[9] = test system: NCI-H1755
Procedure, shortened: as §1

[10] = test system: NCI-H2228
Procedure, shortened: as §1

[11] = test system: NCI-H2347
Procedure, shortened: as §1

[12] = test system: LC-2-ad
Procedure, shortened: as §1

[13] = test system: PC-3 [JPC-3]
Procedure, shortened: as §1

[14] = test system: RERF-LC-KJ
Procedure, shortened: as §1

[15] = test system: NCI-H1792
Procedure, shortened: as §1

[16] = test system: SW 1573
Procedure, shortened: as §1

[17] = test system: A-427
Procedure, shortened: as §1

[18] = test system: NCI-H647
Procedure, shortened: as §1

[19] = test system: LOU-NH91
Procedure, shortened: as §1

[20] = test system: NCI-H460
Procedure, shortened: as §1

[21] = test system: HOP-62
Procedure, shortened: as §1

[22] = test system: NCI-H2126
Procedure, shortened: as §1

Compound `C=C1C(=O)O[C@@H](CCCCCCCC)[C@@H]1C(=O)O` [C-75] + CS(=O)(=O)N1CCN(Cc2cc3nc(-c4cccc5[nH]ncc45)nc(N4CCOCC4)c3s2)CC1 [Pictilisib] (partner 1 µM) has a relative viability ([1]; first compound 0.08 µM) of 0.568, a relative viability ([1]; first compound 0.253 µM) of 0.638 and a relative viability ([1]; first compound 0.8 µM) of 0.588. The relative viability ([1]; first compound 2.53 µM) was 0.574, the relative viability ([1]; first compound 8 µM) was 0.362 and the relative viability ([2]; first compound 0.08 µM) was 0.435. It also gave a relative viability ([2]; first compound 0.253 µM) of 0.428, a relative viability ([2]; first compound 0.8 µM) of 0.448 and a relative viability ([2]; first compound 2.53 µM) of 0.384. For the same compound, the relative viability ([2]; first compound 8 µM) was 0.367, the relative viability ([3]; first compound 0.08 µM) was 0.216 and the relative viability ([3]; first compound 0.253 µM) was 0.217. It also gave a relative viability ([3]; first compound 0.8 µM) of 0.206, a relative viability ([3]; first compound 2.53 µM) of 0.198 and a relative viability ([3]; first compound 8 µM) of 0.22. The relative viability ([4]; first compound 0.08 µM) was 0.739, the relative viability ([4]; first compound 0.253 µM) was 0.761 and the relative viability ([4]; first compound 0.8 µM) was 0.654. For the same compound, the relative viability ([4]; first compound 2.53 µM) was 0.666, the relative viability ([4]; first compound 8 µM) was 0.725 and the relative viability ([5]; first compound 0.08 µM) was 0.77. The relative viability ([5]; first compound 0.253 µM) was 0.836, the relative viability ([5]; first compound 0.8 µM) was 0.76 and the relative viability ([5]; first compound 2.53 µM) was 0.771. For the same compound, the relative viability ([5]; first compound 8 µM) was 0.73, the relative viability ([6]; first compound 0.08 µM) was 0.953 and the relative viability ([6]; first compound 0.253 µM) was 1.08. The relative viability ([6]; first compound 0.8 µM) was 0.857, the relative viability ([6]; first compound 2.53 µM) was 0.828 and the relative viability ([6]; first compound 8 µM) was 0.763. For the same compound, the relative viability ([7]; first compound 0.08 µM) was 0.365, the relative viability ([7]; first compound 0.253 µM) was 0.348 and the relative viability ([7]; first compound 0.8 µM) was 0.312. The relative viability ([7]; first compound 2.53 µM) was 0.326, the relative viability ([7]; first compound 8 µM) was 0.361 and the relative viability ([8]; first compound 0.08 µM) was 0.286. For the same compound, the relative viability ([8]; first compound 0.253 µM) was 0.282, the relative viability ([8]; first compound 0.8 µM) was 0.278 and the relative viability ([8]; first compound 2.53 µM) was 0.326. The relative viability ([8]; first compound 8 µM) was 0.347, the relative viability ([9]; first compound 0.08 µM) was 0.461 and the relative viability ([9]; first compound 0.253 µM) was 0.448. It also gave a relative viability ([9]; first compound 0.8 µM) of 0.389, a relative viability ([9]; first compound 2.53 µM) of 0.339 and a relative viability ([9]; first compound 8 µM) of 0.402. The relative viability ([10]; first compound 0.08 µM) was 0.429, the relative viability ([10]; first compound 0.253 µM) was 0.689 and the relative viability ([10]; first compound 0.8 µM) was 0.221. It also gave a relative viability ([10]; first compound 2.53 µM) of 0.202, a relative viability ([10]; first compound 8 µM) of 0.324 and a relative viability ([11]; first compound 0.08 µM) of 0.554. The relative viability ([11]; first compound 0.253 µM) was 0.877, the relative viability ([11]; first compound 0.8 µM) was 0.31 and the relative viability ([11]; first compound 2.53 µM) was 0.592. For the same compound, the relative viability ([11]; first compound 8 µM) was 0.649, the relative viability ([12]; first compound 0.08 µM) was 0.556 and the relative viability ([12]; first compound 0.253 µM) was 0.528. For the same compound, the relative viability ([12]; first compound 0.8 µM) was 0.457, the relative viability ([12]; first compound 8 µM) was 0.442 and the relative viability ([13]; first compound 0.08 µM) was 0.817. For the same compound, the relative viability ([13]; first compound 0.253 µM) was 0.637, the relative viability ([13]; first compound 0.8 µM) was 0.674 and the relative viability ([13]; first compound 2.53 µM) was 0.822. The relative viability ([13]; first compound 8 µM) was 0.876, the relative viability ([14]; first compound 0.08 µM) was 0.564 and the relative viability ([14]; first compound 0.253 µM) was 0.528. For the same compound, the relative viability ([14]; first compound 0.8 µM) was 0.625, the relative viability ([14]; first compound 2.53 µM) was 0.537 and the relative viability ([14]; first compound 8 µM) was 0.533. The relative viability ([15]; first compound 0.08 µM) was 0.312, the relative viability ([15]; first compound 0.253 µM) was 0.268 and the relative viability ([15]; first compound 0.8 µM) was 0.293. The relative viability ([15]; first compound 2.53 µM) was 0.261, the relative viability ([15]; first compound 8 µM) was 0.343 and the relative viability ([16]; first compound 0.08 µM) was 0.555. The relative viability ([16]; first compound 0.253 µM) was 0.511, the relative viability ([16]; first compound 0.8 µM) was 0.482 and the relative viability ([16]; first compound 2.53 µM) was 0.346. It also gave a relative viability ([16]; first compound 8 µM) of 0.365, a relative viability ([17]; first compound 0.08 µM) of 0.786 and a relative viability ([17]; first compound 0.253 µM) of 0.75. The relative viability ([17]; first compound 0.8 µM) was 0.626, the relative viability ([17]; first compound 2.53 µM) was 0.62 and the relative viability ([17]; first compound 8 µM) was 0.718. For the same compound, the relative viability ([18]; first compound 0.08 µM) was 0.449, the relative viability ([18]; first compound 0.253 µM) was 0.427 and the relative viability ([18]; first compound 2.53 µM) was 0.396. For the same compound, the relative viability ([18]; first compound 8 µM) was 0.498, the relative viability ([19]; first compound 0.08 µM) was 0.555 and the relative viability ([19]; first compound 0.253 µM) was 0.602. It also gave a relative viability ([19]; first compound 0.8 µM) of 0.446, a relative viability ([19]; first compound 2.53 µM) of 0.406 and a relative viability ([19]; first compound 8 µM) of 0.461. It also gave a relative viability ([20]; first compound 0.08 µM) of 0.396, a relative viability ([20]; first compound 0.253 µM) of 0.472 and a relative viability ([20]; first compound 0.8 µM) of 0.303. The relative viability ([20]; first compound 8 µM) was 0.348, the relative viability ([21]; first compound 0.08 µM) was 0.732 and the relative viability ([21]; first compound 0.253 µM) was 0.927. For the same compound, the relative viability ([21]; first compound 0.8 µM) was 0.788, the relative viability ([21]; first compound 2.53 µM) was 0.73 and the relative viability ([21]; first compound 8 µM) was 0.545. It also gave a relative viability ([22]; first compound 0.08 µM) of 0.465, a relative viability ([22]; first compound 0.253 µM) of 0.597 and a relative viability ([22]; first compound 0.8 µM) of 0.471. The relative viability ([22]; first compound 2.53 µM) was 0.506 and the relative viability ([22]; first compound 8 µM) was 0.469.

Reference: the supplement of paper PMC10307832
